Experimental data: US4061862A, “Derivatives of 7-(cyclized)phenylglycyl-3-triazolo-thio methyl cephalosporin” (priority 1976, dated 1977)
Converted amounts (≈) assume the structure as drawn. Like-named read-outs stand apart in the source and are kept apart here.

Experiments:
[1] = Bio-assay (mcg./mg.)
Experimental: 7-[D-α-amino-α-(p-hydroxyphenyl)acetamido]-3-(1,2,3-triazol-5-ylthiomethyl)-3-cephem-4-carboxylic acid methanol solvate (15 g.) was slurried in 60 ml. of water. The pH was raised to 6.5 by addition of 4N NaOH and the mixture was passed through a 200 mesh screen. The reaction mixture was slurried at room temperature for 2 hours, the pH being maintained at 6.5 during this period. The crystals were removed by filtration, washed with 20 ml. of water and air dried at 37° C. for 24 hours to give 11.5 g. of title crystalline product. Bio assay = 924 mcg./mg. (average % H2 O, K.F. = 5.26).
7-[D-α-amino-α-(p-hydroxyphenyl)acetamido]-3-(1,2,3-triazol-5-ylthiomethyl)-3-cephem-4-carboxylic acid methanol solvate (200 mesh; 10.0 g.) substantially free of propylene glycol is slurried in 30-40 ml. of deionized water at ambient room temperature (20°-25° C.) to give a pH 3-4 aqueous suspension. NaOH (40%) is slowly added with rapid stirring to bring the pH to 6.3-6.7. The mixture is slurried at pH 6.3-6.7 for 2 hours. The crystals are removed by filtration, washed with water and air dried at room temperature for 24 hours to give a 75-80% weight yield of 950-1000 mcg./mg. crystals of 7-[D-α-amino-α-(p-hydroxyphenyl)acetamido]-3-(1,2,3-triazol-5-ylthiomethyl)-3-cephem-4-carboxylic acid dihydrate. […] H2 O, K.F. = 6.56.

[2] = tested on: Sal. enteritidis A9531; experiment: Antibiotic spectrum in nutrient broth, MIC; format: cell-based; conditions: Salmonella enterica, 10^-4 dilution, BL-S1052 adjusted for 97.5% content of BL-S640
Excerpt: (§1) Antibiotic Spectrum in Nutrient Broth
(§2) **Dilution of overnight broth culture.
(§3) ^(1) Adjusted for 97.5% content of BL-S640. In other words, the
(§4) numerical values are lowered, i.e. improved. This adjustment was also mad
(§5) in the tests reported below or in the alternative, a larger weight was
(§6) used to provide equivalent dosage.

[3] = tested on: Ps. Aeruginosa A9843A; experiment: Antibiotic spectrum in nutrient broth, MIC; format: cell-based; conditions: Pseudomonas aeruginosa
Excerpt: as §1, §2, §3, §4, §5, §6

[4] = tested on: Ent. cloacae A9656; experiment: Antibiotic spectrum in nutrient broth, MIC; format: cell-based; conditions: Enterobacter cloacae, 10^-4 dilution, BL-S1052 adjusted for 97.5% content of BL-S640
Excerpt: as §1, §2, §3, §4, §5, §6

[5] = tested on: K. pneumoniae A9977; experiment: Antibiotic spectrum in nutrient broth, MIC; format: cell-based; conditions: Klebsiella pneumoniae, 10^-4 dilution, BL-S1052 adjusted for 97.5% content of BL-S640
Excerpt: as §1, §2, §3, §4, §5, §6

[6] = tested on: K. pneumoniae A15130; experiment: Antibiotic spectrum in nutrient broth, MIC; format: cell-based; conditions: Klebsiella pneumoniae, 10^-4 dilution, BL-S1052 adjusted for 97.5% content of BL-S640
Excerpt: as §1, §2, §3, §4, §5, §6

[7] = tested on: Ent. cloacae A9657; experiment: Antibiotic spectrum in nutrient broth, MIC; format: cell-based; conditions: Enterobacter cloacae, 10^-4 dilution, BL-S1052 adjusted for 97.5% content of BL-S640
Excerpt: as §1, §2, §3, §4, §5, §6

[8] = tested on: Ser. marcescens A20019; experiment: Antibiotic spectrum in nutrient broth, MIC; format: cell-based; conditions: Serratia marcescens, 10^-4 dilution, BL-S1052 adjusted for 97.5% content of BL-S640
Excerpt: as §1, §2, §3, §4, §5, §6

[9] = tested on: S. aureus Meth-Res A15097; experiment: Antibiotic spectrum in nutrient broth, MIC; format: cell-based; conditions: Staphylococcus aureus; 10^-3 dilution; BL-S1052 adjusted for 97.5% content of BL-S640
Excerpt: as §1, §2, §3, §4, §5, §6

[10] = tested on: E. coli A9675; experiment: Antibiotic spectrum in nutrient broth, MIC; format: cell-based; conditions: Escherichia coli, 10^-4 dilution, BL-S1052 adjusted for 97.5% content of BL-S640
Excerpt: as §1, §2, §3, §4, §5, §6

[11] = tested on: S. aureus Smith A9537; experiment: Antibiotic spectrum in nutrient broth, MIC; format: cell-based; conditions: Staphylococcus aureus, BL-S1052 adjusted for 97.5% content of BL-S640
Excerpt: as §1, §2, §3, §4, §5, §6

[12] = tested on: Pr. mirabilis A9900; experiment: Antibiotic spectrum in nutrient broth, MIC; format: cell-based; conditions: Proteus mirabilis, 10^-4 dilution, BL-S1052 adjusted for 97.5% content of BL-S640
Excerpt: as §1, §2, §3, §4, §5, §6

[13] = tested on: E. coli Juhl A15119; experiment: Antibiotic spectrum in nutrient broth, MIC; format: cell-based; conditions: Escherichia coli, JUHLA15119; 10^-4 dilution; BL-S1052 adjusted for 97.5% content of BL-S640
Excerpt: as §1, §2, §3, §4, §5, §6

[14] = Paper chromatograms of rat urine for antibiotically active metabolites after IM administration; format: in vivo; conditions: rat urine 0-2 and 2-4 hours; for Antibiotically active spots in urine: paper chromatography system No. 9
Experimental: Paper chromatograms were run on rat urine collected between 0 and 2 and between 2 and 4 hours, following IM administration of BL-S1052 and BL-S640, for the detection of antibiotically active metabolites using descending chromatography with system No. 9 (butyl acetate:n-butanol:glacial acetic acid:H2 O = 80:15:40:24).

[15] = tested on: S. aureus BX1633; experiment: Antibiotic spectrum in nutrient broth, MIC; format: cell-based; conditions: Staphylococcus aureus
Excerpt: as §1, §2
(§7) This adjustment was also mad
as §5, §6

[16] = tested on: Pr. morganii A15153; experiment: Antibiotic spectrum in nutrient broth, MIC; format: cell-based; conditions: Morganella morganii, 10^-4 dilution, BL-S1052 adjusted for 97.5% content of BL-S640
Excerpt: as §1, §2, §7, §5, §6

[17] = tested on: Ent. cloacae A9659; experiment: Antibiotic spectrum in nutrient broth, MIC; format: cell-based; conditions: Enterobacter cloacae, 10^-4 dilution, BL-S1052 adjusted for 97.5% content of BL-S640
Excerpt: as §1, §2, §7, §5, §6

[18] = tested on: Str. pyogenes A9604; experiment: Antibiotic spectrum in nutrient broth, MIC; format: cell-based; conditions: Streptococcus pyogenes, 10^-3 dilution of overnight culture, 45% AAB + 5% serum + 50% broth, BL-S1052 adjusted for 97.5% content of BL-S640
Excerpt: as §1
(§8) *45% AAB + 5% serum + 50% broth listed above.
as §2, §3, §4, §5, §6

[19] = tested on: S. pneumoniae A9585; experiment: Antibiotic spectrum in nutrient broth, MIC; format: cell-based; conditions: Streptococcus pneumoniae, 10^-3 dilution of overnight culture, 45% AAB + 5% serum + 50% broth, BL-S1052 adjusted for 97.5% content of BL-S640
Excerpt: as §1, §8, §2, §3, §4, §5, §6

[20] = Mouse blood levels after IM administration; format: in vivo; conditions: IM 10 mg./kg.
Experimental: Mouse Blood Levels after IM
Administration of 10 mg./kg. Body Weight
Blood Levels (mcg./ml.)
(§9) The compounds were prepared in 0.01% phosphate buffer. BL-S640 was used a
(§10) standard for all compounds.

[21] = Urinary recovery after IM administration to rats; format: in vivo; conditions: rat, urine, read-out: Urinary recovery, percentage of administered dose recovered; for dose excreted at 6 h: 0-6 hr
Experimental: Urinary Recovery after IM
Administration of 50 and 10 mg./kg. to Rats
as §9, §10

[22] = Mouse blood levels after PO administration; format: in vivo; conditions: PO 100 mg./kg.
Experimental: ______________________________________
Mouse Blood Levels after PO
Administration of 100 mg./kg. Body Weight
The compounds were prepared in Tween-CMC. BL-S640 was used as standard fo

[23] = Liquid chromatography, % free BL-S640 present (hydrolysis in solution); format: physicochemical; conditions: 1 mg./ml.
Experimental: 5. Liquid Chromatography (concentration = 1 mg./ml.)
Time in Hours % Free BL-S640 Present

[24] = Water solubility; format: physicochemical
Experimental: The sodium and potassium salts of formula I may be dissolved in water to form relatively concentrated solutions of at least 250 mg./ml. of activity. Concentrations of 250 mg./ml. of activity (pH 5.7-7.2) of these salts have acceptable aqueous stabilities.
g. Water solubility = Approximately 10 mg./ml. in water at 23° C.
3. Solubility = greater than 400 mg./ml.

[25] = SMITHA9537, 10^-4 dilution, nutrient broth
[26] = SMITHA9537, +50% serum, 10^-4 dilution
[27] = BX1633, 10^-2 dilution, A9606, BL-S1052 adjusted for 97.5% content of BL-S640, read-out: MIC
[28] = 10 mg/kg, IM 10 mg./kg., 0-24 hr
[29] = 10 mg/kg, IM 10 mg./kg., 6-24 hr
[30] = 50 mg/kg, IM 50 mg./kg., 0-24 hr
[31] = 50 mg/kg, IM 50 mg./kg., 6-24 hr

Compound	MIC [2]	MIC [3]	MIC [4]	MIC [5]	MIC [6]	MIC [7]	MIC [8]	MIC [9]	MIC [10]	MIC [11, 25]	MIC [11, 26]	MIC [12]	MIC [13]	Antibiotically active spots in urine [14]	MIC [15, 27]	MIC [16]	MIC [17]	MIC [18]	MIC [19]	concentration at 0.25 h [20]	also measured
N[C@@H](C(=O)NC1C(=O)N2C(C(=O)O)=C(CSc3c[nH]nn3)CS[C@H]12)c1ccc(O)cc1 (stereo partly drawn) [7-[D-α-amino-α-(p-hydroxyphenyl)acetamido]-3-(1,2,3-triazol-5-ylthiomethyl)-3-cephem-4-carboxylic acid sesquihydrate]	–	–	–	–	–	–	–	–	–	–	–	–	–	–	–	–	–	–	–	–	Bio-assay ([1]; sesquihydrate): 924 µg/mg
N[C@@H](C(=O)N[C@@H]1C(=O)N2C(C(=O)O)=C(CSc3c[nH]nn3)CS[C@H]12)c1ccc(O)cc1 [BL-S640, 7-[D-α-amino-α-(p-hydroxyphenyl)acetamido]-3-(1,2,3-triazol-5-ylthiomethyl)-3-cephem-4-carboxylic acid]	0.25 µg/mL (≈ 0.541 µM)	> 125 µg/mL	> 125 µg/mL	0.5 µg/mL (≈ 1.08 µM)	1 µg/mL (≈ 2.16 µM)	0.5 µg/mL (≈ 1.08 µM)	> 125 µg/mL	8 µg/mL (≈ 17.3 µM)	2 µg/mL (≈ 4.32 µM)	0.13 µg/mL (≈ 0.281 µM)	2 µg/mL (≈ 4.32 µM)	0.5 µg/mL (≈ 1.08 µM)	0.5 µg/mL (≈ 1.08 µM)	Two spots identically located	4 µg/mL (≈ 8.65 µM)	32 µg/mL (≈ 69.2 µM)	32 µg/mL (≈ 69.2 µM)	0.03 µg/mL	0.06 µg/mL	15700 ng/mL	MIC ([15]; BX1633, 10^-3 dilution, A9696, BL-S1052 adjusted for 97.5% content of BL-S640, read-out: MIC): 0.25 µg/mL (≈ 0.541 µM); concentration at 0.5 h [20]: 13200 ng/mL; concentration at 1 h [20]: 9500 ng/mL; concentration at 1.5 h [20]: 6800 ng/mL; dose excreted at 6 h ([21]; 10 mg/kg, IM 10 mg./kg.): 24.3%; dose excreted at 24 h [21, 28]: 25.7%; dose excreted at 24 h [21, 29]: 1.4%; dose excreted at 6 h ([21]; 50 mg/kg, IM 50 mg./kg.): 44.5%; dose excreted at 24 h [21, 30]: 47.2%; dose excreted at 24 h [21, 31]: 2.7%; concentration at 0.5 h [22]: 53400 ng/mL; concentration at 1 h [22]: 45400 ng/mL; concentration at 2 h [22]: 27200 ng/mL; concentration at 3.5 h [22]: 10700 ng/mL
O=C(O)C1=C(CSc2c[nH]nn2)CSC2C(N3C(=O)C(c4ccc(O)cc4)NC3c3ccco3)C(=O)N12 (stereo not drawn) [BL-S1052]	0.13 µg/mL (≈ 0.24 µM)	> 125 µg/mL	> 125 µg/mL	0.5 µg/mL (≈ 0.925 µM)	1 µg/mL (≈ 1.85 µM)	0.5 µg/mL (≈ 0.925 µM)	> 125 µg/mL	4 µg/mL (≈ 7.4 µM)	2 µg/mL (≈ 3.7 µM)	0.13 µg/mL (≈ 0.24 µM)	2 µg/mL (≈ 3.7 µM)	0.5 µg/mL (≈ 0.925 µM)	1 µg/mL (≈ 1.85 µM)	Two spots identically located	2 µg/mL (≈ 3.7 µM)	32 µg/mL (≈ 59.2 µM)	32 µg/mL (≈ 59.2 µM)	0.03 µg/mL	0.06 µg/mL	15100 ng/mL	% Free BL-S640 Present ([23]; 0 hours): 69.2%; % free BL-S640 present at 1 h ([23]; 1 hour): 74.2%; % free BL-S640 present at 2 h ([23]; 2 hours): 94.5%; Hydrolysis of the derivative to parent compound BL-S640 and its presumed metabolite [14]: complete hydrolysis; MIC ([15]; BX1633): 0.25 µg/mL (≈ 0.462 µM); solubility [24]: > 400 mg/mL; Bio-assay [1]: 775 to 800 µg/mg; concentration at 0.5 h [20]: 15100 ng/mL; concentration at 1 h [20]: 11500 ng/mL; concentration at 1.5 h [20]: 7800 ng/mL; dose excreted at 6 h ([21]; 10 mg/kg, IM 10 mg./kg.): 21.7%; dose excreted at 24 h [21, 28]: 24.1%; dose excreted at 24 h [21, 29]: 2.4%; dose excreted at 6 h ([21]; 50 mg/kg, IM 50 mg./kg.): 40.3%; dose excreted at 24 h [21, 30]: 42.4%; dose excreted at 24 h [21, 31]: 2.1%; concentration at 0.5 h [22]: 45200 ng/mL; concentration at 1 h [22]: 48100 ng/mL; concentration at 2 h [22]: 31900 ng/mL; concentration at 3.5 h [22]: 14400 ng/mL
